The results in this text go back to patent publication US9695155B2, “Herbicidal substituted pyrimidinyloxy benzene compounds” (E. I. DU PONT DE NEMOURS AND COMPANY, priority 2013, dated 2017).

Test [1] deals with Russian thistle. The test can be described thus: Test D postemergence. It is filed as in vivo, Salsola kali. The source says: Seeds of plant species selected from bluegrass (annual bluegrass, Poa annua), blackgrass (Alopecurus myosuroides), canarygrass (littleseed canarygrass, Phalaris minor), chickweed (common chickweed, Stellaria media), galium (catchweed bedstraw, Galium aparine), bromegrass, downy (downy bromegrass, Bromus tectorum), field poppy (Papaver rhoeas), field violet (Viola arvensis), green foxtail (Setaria viridis), deadnettle (henbit deadnettle, Lamium amplexicaule), Italian ryegrass (Lolium multiflorum), kochia (Kochia scoparia), lambsquarters (Chenopodium album), oilseed rape (Brassica napus), pigweed (Amaranthus retroflexus), chamomile (scentless chamomile, Matricaria inodora), Russian thistle (Salsola kali), speedwell (bird's-eye speedwell, Veronica persica), spring barley (Hordeum vulgare), spring wheat (Triticum aestivum), wild buckwheat (Polygonum convolvulus), wild mustard (Sinapis arvensis), wild oat (Avena fatua), wild radish (Raphanus raphanistrum), windgrass (Apera spica-venti), winter barley (Hordeum vulgare), and winter wheat (Triticum aestivum) were planted into a silt loam soil and treated preemergence with test chemicals formulated in a non-phytotoxic solvent mixture which included a surfactant.
At the same time, these species were planted in pots containing Redi-Earth® planting medium (Scotts Company, 14111 Scottslawn Road, Marysville, Ohio 43041) comprising spaghnum peat moss, vermiculite, wetting agent and starter nutrients and treated with postemergence applications of the test chemicals formulated in the same manner. Plants ranged in height from 2 to 18 cm (1- to 4-leaf stage). Treated plants and controls were maintained in a controlled growth environment for 7 to 21 days after which time all species were compared to controls and visually evaluated. Plant response ratings, summarized in Table D, are based on a scale of 0 to 100 where 0 is no effect and 100 is complete control. A dash (-) response means no test result.

Test [2] has as its system sunflower. The test can be described thus: Test C preemergence. The note with it: for Sunflower plant response rating: preemergence, scale 0 (no effect) to 100 (complete control); for Plant response rating, Sunflower: Preemergence, 31 g ai/ha, scale 0 to 100, 0 no effect, 100 complete control. It is filed as in vivo, Helianthus annuus. An excerpt: (§1) Seeds of plant species selected from blackgrass (Alopecurus myosuroides), Italian ryegrass (Lolium multiflorum), wheat, winter (winter wheat, Triticum aestivum), galium (catchweed bedstraw, Galium aparine), corn (Zea mays), large (Lg) crabgrass (Digitaria sanguinalis), giant foxtail (Setaria faberii), johnsongrass (Sorghum halepense), lambsquarters (Chenopodium album), morningglory (Ipomoea coccinea), yellow nutsedge (Cyperus esculentus), pigweed (Amaranthus retroflexus), ragweed (common ragweed, Ambrosia elatior), soybean (Glycine max), barnyardgrass (Echinochloa crus-galli), oilseed rape (Brassica napus), waterhemp (common waterhemp, Amaranthus rudis), kochia (Kochia scoparia), wild oat (Avena fatua), surinam grass (Brachiaria decumbens), foxtail, green (green foxtail, Setaria viridis), goosegrass (Eleusine indica), bromegrass, downy (downy bromegrass, Bromus tectorum), nightshade (eastern black nightshade, Solanum ptycanthum), cocklebur (common cocklebur, Xanthium strumarium), cupgrass, woolly (woolly cupgrass, Eriochloa villosa), bermudagrass (Cynodon dactylon), sunflower, (common oilseed sunflower, Helianthus annuus), Russian thistle (Salsola kali), and velvetleaf (Abutilon theophrasti) were planted into a blend of loam soil and sand and treated preemergence with test chemicals formulated in a non-phytotoxic solvent mixture which included a surfactant.
(§2) At the same time, plants selected from these crop and weed species and also barley, winter (winter barley, Hordeum vulgare), windgrass (Apera spica-venti), chickweed (common chickweed, Stellaria media), deadnettle (henbit deadnettle, Lamium amplexicaule), and canarygrass (littleseed canarygrass, Phalaris minor) were planted in pots containing Redi-Earth® planting medium (Scotts Company, 14111 Scottslawn Road, Marysville, Ohio 43041) comprising spaghnum peat moss, vermiculite, wetting agent and starter nutrients and treated with postemergence applications of test chemicals formulated in the same manner. Plants ranged in height from 2 to 18 cm (1- to 4-leaf stage) for postemergence treatments. Treated plants and controls were maintained in a greenhouse for 13 to 15 days, after which time all species were compared to controls and visually evaluated. Plant response ratings, summarized in Table C, are based on a scale of 0 to 100 where 0 is no effect and 100 is complete control. A dash (-) response means no test result.

In test [3] the test system is surinam grass. The test can be described thus: Test C postemergence. The note with it: for Plant response rating (0 to 100), Surinam Grass: postemergence; for Plant response rating, Surinam Grass: Postemergence, scale 0 to 100 (0 no effect, 100 complete control). It is filed as in vivo, Brachiaria decumbens.
Excerpt: as §1, §2

In test [4] the test system is windgrass. The test can be described thus: Test C postemergence. The format is in vivo, Apera spica-venti. The conditions noted are these: for Plant response rating (0 to 100), Windgrass: postemergence; for Plant response rating, Windgrass: Postemergence, scale 0 to 100 (0 no effect, 100 complete control).
Excerpt: as §1, §2

Test [5] concerns canarygrass. The test can be described thus: Test C postemergence. It is filed as in vivo, Phalaris minor. The conditions noted are these: for Plant response rating (0 to 100), Canarygrass: postemergence; for Plant response rating, Canarygrass: Postemergence, scale 0 to 100 (0 no effect, 100 complete control).
Excerpt: as §1, §2

For test [6], the system named is waterhemp_RES1 (ALS & Triazine resistant common waterhemp). The test can be described thus: Test E postemergence. The format is in vivo, Amaranthus rudis. In short, it runs like this: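 Compound in a non-phytotoxic solvent mixture with surfactant was applied preemergence to seeds in silt loam soil, or postemergence to plants 2 to 18 cm tall grown in peat-based potting medium. Plants were kept in a greenhouse for 14 to 21 days, then rated visually against untreated controls on a 0 (no effect) to 100 (complete control) scale.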

Setting [7] is: 31 g ai/ha, scale 0 to 100 (0 no effect, 100 complete control).
Where [8] appears, read: 62 g ai/ha, scale 0 to 100 (0 no effect, 100 complete control).
[9] abbreviates: 125 g ai/ha, scale 0 to 100 (0 no effect, 100 complete control).
Setting [10] is: 250 g ai/ha, scale 0 to 100 (0 no effect, 100 complete control).
The mark [11] stands for this setting: Postemergence, 31 g ai/ha, scale 0 to 100.
[12] abbreviates: Postemergence, 62 g ai/ha, scale 0 to 100.
[13] abbreviates: Postemergence, 125 g ai/ha, scale 0 to 100.
Setting [14] is: postemergence, 8 g ai/ha, scale 0 to 100, 0 no effect, 100 complete control.
Setting [15] is: postemergence, 16 g ai/ha, scale 0 to 100, 0 no effect, 100 complete control.
Setting [16] is: Postemergence, 250 g ai/ha, scale 0 to 100.

On to `Clc1cnc(Oc2ccccc2-n2cc(Cl)cn2)nc1` [Compound 3], for which the “Plant response rating, Russian Thistle” value is 0 in test [1] (16 g ai/ha, scale 0-100); 10 in test [1] (setting [7]); 10 in test [1] (setting [8]); 10 in test [1] (setting [9]); 20 in test [1] (setting [10]).

In the case of `Clc1cnc(Oc2ccccc2-n2cc(Br)cn2)nc1` [Compound 7, 2-[2-(4-bromo-1H-pyrazol-1-yl)phenoxy]-5-chloropyrimidine], the “Sunflower plant response rating” value in test [2] (62 g ai/ha), in test [2] (125 g ai/ha) and in test [2] (250 g ai/ha) was 10 throughout. Besides, the “Plant response rating, Sunflower” value in test [2] is on record as 0. The “Plant response rating (0 to 100), Surinam Grass” value in test [3] (125 g ai/ha) stood at 30. In addition, the “Plant response rating, Surinam Grass” value is 15 in test [3] (31 g ai/ha, 13 to 15 days) and 20 in test [3] (62 g ai/ha). Moreover, the figures for the “Plant response rating (0 to 100), Windgrass” value in test [4] (125 g ai/ha) and in test [4] (250 g ai/ha) were 55 and 80, respectively. Also, the “Plant response rating, Windgrass” value in test [4] (31 g ai/ha, 13 to 15 days) was found to be 10; in test [4] (62 g ai/ha) it was 55. The entries for the “Plant response rating (0 to 100), Canarygrass” value in test [5] (125 g ai/ha) and in test [5] (250 g ai/ha) were 30 and 80, respectively. Further, the “Plant response rating, Canarygrass” value in test [5] (31 g ai/ha, 13 to 15 days) is recorded as 5; in test [5] (62 g ai/ha), 10. The “Plant response rating, Russian Thistle” value is on record as 0 in test [1] (16 g ai/ha, scale 0-100); 0 in test [1] (setting [7]); 30 in test [1] (setting [8]); 30 in test [1] (setting [9]); 70 in test [1] (setting [10]). Besides, the “Plant response rating, Waterhemp_RES1” value in test [6] (setting [11]) turned out to be 80; in test [6] (setting [12]), 95; in test [6] (setting [13]), 90; in test [6] (setting [14]) it was 65; in test [6] (setting [15]), 70.

`Fc1cnc(Oc2ccccc2-n2cc(Br)cn2)nc1` [Compound 10, 2-[2-(4-bromo-1H-pyrazol-1-yl)phenoxy]-5-fluoropyrimidine]: the “Plant response rating (0 to 100), Surinam Grass” value in test [3] (125 g ai/ha) and in test [3] (250 g ai/ha) was 15 each time. Further, the “Plant response rating, Surinam Grass” value in test [3] (31 g ai/ha, 13 to 15 days) is 0; in test [3] (62 g ai/ha) it was 10. Further, the “Plant response rating (0 to 100), Windgrass” value in test [4] (125 g ai/ha) is 50; in test [4] (250 g ai/ha), 65. Further, the “Plant response rating, Windgrass” value in test [4] (31 g ai/ha, 13 to 15 days) is listed as 10; in test [4] (62 g ai/ha), 10. Also, the “Plant response rating (0 to 100), Canarygrass” value stood at 25 in test [5] (125 g ai/ha) and 40 in test [5] (250 g ai/ha). The “Plant response rating, Canarygrass” value was 0 in test [5] (31 g ai/ha, 13 to 15 days) and 0 in test [5] (62 g ai/ha).

Regarding `FC(F)(F)c1cnn(-c2ccccc2Oc2ncc(Cl)cn2)c1` [Compound 16], the “Sunflower plant response rating” value in test [2] (62 g ai/ha), in test [2] (125 g ai/ha) and in test [2] (250 g ai/ha) was 0 throughout. Besides, in test [2], the “Plant response rating, Sunflower” value is 0. Also, the “Plant response rating (0 to 100), Surinam Grass” value in test [3] (125 g ai/ha) and in test [3] (250 g ai/ha) was 40 throughout. Further, the “Plant response rating, Surinam Grass” value is given as 10 in test [3] (31 g ai/ha, 13 to 15 days) and 15 in test [3] (62 g ai/ha). The “Plant response rating (0 to 100), Windgrass” value in test [4] (125 g ai/ha) and in test [4] (250 g ai/ha) was 50 in each case. In addition, the “Plant response rating, Windgrass” value in test [4] (31 g ai/ha, 13 to 15 days) came to 30; in test [4] (62 g ai/ha), 40. Further, the “Plant response rating (0 to 100), Canarygrass” value in test [5] (125 g ai/ha) was determined as 60; in test [5] (250 g ai/ha) it was 80. The “Plant response rating, Canarygrass” value stood at 10 in test [5] (31 g ai/ha, 13 to 15 days) and 30 in test [5] (62 g ai/ha). For the same compound, the “Plant response rating, Waterhemp_RES1” value is on record as 50 in test [6] (setting [11]); 60 in test [6] (setting [12]); 75 in test [6] (setting [13]); 95 in test [6] (setting [16]); 50 in test [6] (setting [15]).

For the compound `FC(F)(F)c1cnn(-c2ccccc2Oc2ncc(Br)cn2)c1` [Compound 18, 5-bromo-2-[2-[4-(trifluoromethyl)-1H-pyrazol-1-yl]phenoxy]pyrimidine], the “Sunflower plant response rating” value turned out to be 0 in test [2] (62 g ai/ha), 0 in test [2] (125 g ai/ha) and 40 in test [2] (250 g ai/ha). The “Plant response rating, Sunflower” value in test [2] came out at 0. Also, the “Plant response rating, Russian Thistle” value in test [1] (16 g ai/ha, scale 0-100) stood at 10; in test [1] (setting [7]), 5; in test [1] (setting [8]), 50; in test [1] (setting [9]) it was 60; in test [1] (setting [10]), 100.

`N#Cc1cccc(Oc2ncc(Cl)cn2)c1-n1cc(C(F)(F)F)cn1` [Compound 58, 3-[(5-chloro-2-pyrimidinyl)oxy]-2-[4-(trifluoromethyl)-1H-pyrazol-1-yl]benzonitrile]: the “Plant response rating, Waterhemp_RES1” value was 80 in test [6] (setting [11]); 95 in test [6] (setting [12]); 95 in test [6] (setting [13]); 100 in test [6] (setting [16]); 80 in test [6] (setting [15]).

Turning to `N#Cc1cccc(Oc2ncc(Br)cn2)c1-n1cc(C(F)(F)F)cn1` [Compound 59, 3-[(5-bromo-2-pyrimidinyl)oxy]-2-[4-(trifluoromethyl)-1H-pyrazol-1-yl]benzonitrile], the “Plant response rating, Waterhemp_RES1” value in test [6] (setting [11]) worked out at 80; in test [6] (setting [12]), 90; in test [6] (setting [13]) it was 95; in test [6] (setting [16]) it was 100; in test [6] (setting [15]), 70.

In the case of `Clc1cnc(Oc2cccc(Br)c2-n2cc(Br)cn2)nc1` [Compound 65], the “Plant response rating, Waterhemp_RES1” value in test [6] (setting [11]) is 85; in test [6] (setting [12]), 90; in test [6] (setting [13]), 98; in test [6] (setting [14]), 65; in test [6] (setting [15]), 70.

For the compound `N#Cc1cccc(Oc2ncc(Cl)cn2)c1-n1cc(-n2ccc(C(F)(F)F)n2)cn1` [Compound 284], the “Plant response rating, Russian Thistle” value is reported as 65 in test [1] (31 g ai/ha, scale 0-100); 75 in test [1] (setting [8]); 85 in test [1] (setting [9]); 95 in test [1] (setting [10]).
